The text below walks through data of publication PMC3236199, “Development of Derivatives of 3, 3′-Diindolylmethane as Potent Leishmania donovani Bi-Subunit Topoisomerase IB Poisons” (PLoS ONE, 2011).

For experiment [1], the system named is DIM resistant L. donovani promastigotes (DR50). Put plainly: Cell viability assay, DIM resistant promastigotes. The experiment is classed as cell-based. Particulars: Leishmania donovani, 12 h, read-out: growth inhibited. The method, then:
(§1) L. donovani strain AG83 and DIM resistant parasite DR50 promastigotes were grown at 22°C in M199 liquid media supplemented with 10% FBS as described. Axenic amastigotes were cultured in modified M199 medium (pH 5.3) supplemented with 10 mM sodium succinate, 40 mM HEPES and 25% FCS and maintained at 37°C with 5% CO2.The effect of drugs on the viability of Leishmania parasites was determined by direct microscopic counting using light microscope (40× objective) in a haemocytometer. The cells at the exponential phase were collected and transferred into 24-well plate (3.5×10^6 cells per well). The cells were then incubated for 12 h in the presence of various concentrations of DIM, DPDIM, DMDIM and DMODIM (1, 5, 10, 20 and 50 µM). For other experiments, 10^4 cells were taken and grown in presence of the respective derivatives for a period of 30 days. For each 5 day interval, a small amount of aliquots were taken out. After incubation the cells were centrifuged and cell pellet was washed with PBS (1×) twice and finally suspended in 1 ml PBS (1×). Fifty µl of aliquot was taken, mixed with 0.4% trypan blue solution and incubated for 3 min at 22°C. One drop of the mixture was transferred to haemocytometer and the clear (live) and blue (dead) cells were counted. The total number of viable cells in aliquot was calculated by multiplying the total number of viable cells by 2 (the dilution factor for trypan blue). To obtain the total number of cells in the aliquot, total number of viable and nonviable cells were added up and multiplied by 2. Percentages of viable cells were calculated using the formula: [drawing 1]
The effects of different derivatives of DIM on cell proliferation were tested by incubating wild type and DIM resistant L. donovani promastigotes (3.5×10^6 cells/ml) with the drugs. […] The number of live promastigotes was measured by differential staining of live and dead cells using light microscope under 40× objective (Fig. 2). […]
Figure 2 Effect of DIM-derivatives on Leishmania parasites. Growth of L. donovani AG83 promastigotes (A) and DIM resistant promastigotes (B) were monitored in presence of increasing concentrations (1, 5, 10, 20 and 50 µM) of DIM, DPDIM, DMDIM and DMODIM for 12 h. […] Change in IC50 values after a prolong exposure to DIM derivatives (C) has been assessed as described in Materials and Methods. After every 5 day a small aliquot was taken out and number of viable promastigotes was counted for each concentration. IC50 values have been determined from them using Graph Pad Prsim ver 5.0 software and a graphical plot was generated over time. Growth of the parasites treated with the compounds was expressed as percentage of the viable promastigotes compared with that of control. […]

Experiment [2] deals with DIM resistant L. donovani axenic amastigotes. Put plainly: Cell viability assay, DIM resistant axenic amastigotes. The experiment is classed as cell-based. Particulars: Leishmania donovani, 12 h, read-out: growth inhibited. The method, then: as §1, with “To obtain the total number of cells in the aliquot, total number of viable and nonviable cells were added up and multiplied by 2.” left out
Figure 3 Effectiveness of clearance of internalized L. donovani (AG83) from in vitro infected mouse M [drawing 3] . […] Cells were fixed, stained with Giemsa and counted under bright field microscope. […] Experiments were carried out for three times and representative results are the mean ± S.D. (B) Growth of DIM resistant L. donovani axenic amastigotes were monitored in presence of increasing concentrations (2, 5, 10, 20 and 50 µM) of DIM, DPDIM, DMDIM and DMODIM for 12 h. […] Growth of the parasites treated with the compounds was expressed as percentage of the viable promastigotes compared with that of control. […]

For the compound `c1ccc2c(Cc3c[nH]c4ccccc34)c[nH]c2c1` [DIM, 3, 3′-diindolyl methane, reference compound], the inhibition at 20 µM in experiment [1] turned out to be 20%.
Turning to `Cc1[nH]c2ccccc2c1Cc1c(C)[nH]c2ccccc12` [DMDIM, 2,2′-dimethyl 3,3′-diindolyl methane], the inhibition at 20 µM in experiment [1] was determined as 85%. Also, the inhibition at 50 µM in experiment [2] stood at 92%.
Turning to `COc1ccc2[nH]cc(Cc3c[nH]c4ccc(OC)cc34)c2c1` [DMODIM, 5,5′-dimethoxy 3,3′-diindolyl methane], the inhibition at 20 µM in experiment [1] amounted to 65%. Also, the inhibition at 50 µM in experiment [2] came out at 79%.
The matching figures for `c1ccc(-c2[nH]c3ccccc3c2Cc2c(-c3ccccc3)[nH]c3ccccc23)cc1` [DPDIM, 2,2′-diphenyl 3,3′-diindolyl methane]: 90% and 98%.
